For 38 compounds, drug sensitivity score results are on record in the supplement of paper PMC8024199.

Common to all, as to assay: drug sensitivity score (DSS) (DSS score); higher = more sensitive (stronger growth inhibition); extreme values may be limits of the assay
Test [1] deals with Ba/F3 P210-BCR-ABL1 RUNX1wt/wt control (mouse). In a few lines:
(§1)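 Mouse Ba/F3 cells, either CRISPR/Cas9-edited at a target exon or edited-control clones, were screened against a 528-compound library on pre-printed 384-well plates. Each compound was tested at five concentrations across a 10,000-fold range, with 10,000 cells per well in RPMI with 10% FBS for 72 h at 37 °C and 5% CO2. CellTiter-Glo luminescence was scaled between vehicle and positive-control wells, and each dose-response was summarised as a drug sensitivity score. Scores were averaged over two replicates.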

Test [2] deals with Ba/F3 P210-BCR-ABL1 RUNX1-/- (mouse). In a few lines:
as §1

Test [3] deals with Ba/F3 P210-BCR-ABL1 RUNX1-/mut (mouse). In a few lines:
as §1

± gives the standard deviation of the averaged measurements.

As to `C=CCn1c(=O)c2cnc(Nc3ccc(N4CCN(C)CC4)cc3)nc2n1-c1cccc(C(C)(C)O)n1` [AZD1775], the drug sensitivity score turned out to be 19.1 ± 0.14 in test [1], 22.8 ± 3.5 in test [2] and 20.8 ± 1.5 in test [3].
As to `COc1cc2ncnc(Nc3cccc(Cl)c3F)c2cc1OC(=O)N1CCN(C)C[C@H]1C` [AZD3759], the drug sensitivity score in test [1], in test [2] and in test [3] was 0 each time.
Turning to `Cc1[nH]nc(C(F)(F)F)c1Cc1sc2c(c1C(=O)N1C[C@](C)(O)CO1)c(=O)n(C)c(=O)n2C(C)C` [AZD3965], the drug sensitivity score in test [1] was found to be 0; in test [2], 9.05 ± 3.5; in test [3], 6.3 ± 0.99.
As to `COc1cc(CCc2cc(NC(=O)c3ccc(N4CC(C)NC(C)C4)cc3)n[nH]2)cc(OC)c1` (centres undefined) [AZD4547], the drug sensitivity score in test [1] was found to be 0; in test [2] it was 0.2 ± 0.28; in test [3], 0.
Turning to `C[C@@H]1COCCN1c1cc(C2([S@](C)(=N)=O)CC2)nc(-c2cc[nH]c3nccc2-3)n1` [AZD6738], the results for the drug sensitivity score in test [1], in test [2] and in test [3] were 18 ± 0.57, 20.1 ± 1.4 and 19.2 ± 0.71, respectively.
In the case of `CN(C)C(=O)c1ccc(S(=O)(=O)c2ccc(NC(=O)[C@@](C)(O)C(F)(F)F)c(Cl)c2)cc1` [AZD7545], the values for the drug sensitivity score in test [1], in test [2] and in test [3] were 0, 0.65 ± 0.071 and 0, respectively.
For the compound `NC(=O)Nc1cc(-c2cccc(F)c2)sc1C(=O)N[C@H]1CCCNC1` [AZD7762], the drug sensitivity score in test [1] was found to be 7.1 ± 0.71; in test [2] it was 9.8 ± 2; in test [3] it was 7.8 ± 2.1.
In the case of `N#Cc1ccc2[nH]c(O)c(-c3ccc(CN4CCOCC4)cn3)c2c1` [AZD-1080], the drug sensitivity score in test [1], in test [2] and in test [3] was 0 each time.
Regarding `Cc1ncc(-c2ccnc(Nc3ccc(S(C)(=O)=O)cc3)n2)n1C(C)C` [AZD-5438], the figures for the drug sensitivity score in test [1], in test [2] and in test [3] were 9.8 ± 0.14, 5.5 ± 0.99 and 8.8 ± 0.99, respectively.
Take `Cc1cc([C@@H](C)Nc2ccccc2C(=O)O)c2nc(N3CCOCC3)cc(=O)n2c1` [AZD-6482]: the drug sensitivity score in test [1] is 0.15 ± 0.21; in test [2], 0.1 ± 0.14; in test [3] it was 0.75 ± 1.1.
Take `C[C@@H](Nc1cc(F)cc(F)c1)c1cc(C(=O)N(C)C)cc2c(=O)cc(N3CCOCC3)oc12` [AZD-8186]: the drug sensitivity score in test [1] worked out at 0; in test [2], 0; in test [3] it was 0.5 ± 0.71.
Turning to `CCN1CCN(Cc2ccc(Nc3ncc(F)c(-c4cc(F)c5nc(C)n(C(C)C)c5c4)n3)nc2)CC1` [Abemaciclib], the drug sensitivity score in test [1] came to 3.05 ± 0.071; in test [2] it was 10.2 ± 4.7; in test [3], 8.3 ± 6.1.
For `CN(C)Cc1c(C(=O)NCCOc2ccc(C(=O)NO)cc2)oc2ccccc12` [Abexinostat], the drug sensitivity score in test [1] was determined as 18.7 ± 0.28; in test [2], 24.4 ± 1.3; in test [3], 23.2 ± 2.4.
As for `CC#CC(=O)N1CCC[C@H]1c1nc(-c2ccc(C(=O)Nc3ccccn3)cc2)c2c(N)nccn12` [Acalabrutinib], the drug sensitivity score was determined as 0 in test [1], 0 in test [2] and 0.05 ± 0.071 in test [3].
Take `COc1cc(C)c(/C=C/C(C)=C/C=C/C(C)=C/C(=O)O)c(C)c1C` [Acitretin]: the drug sensitivity score in test [1] was found to be 0; in test [2], 0; in test [3], 1.3 ± 1.8.
On to `Cn1ncc(Cl)c1-c1cc(C(=O)N[C@H](CN)Cc2cccc(F)c2)sc1Cl` [Afuresertib], for which the drug sensitivity score came to 0 in test [1], 1.05 ± 1.1 in test [2] and 1.6 ± 2.3 in test [3].
`COc1cccc2c1C(=O)c1c(O)c3c(c(O)c1C2=O)C[C@@](O)(/C(CO)=N/NC(=O)CCCCCN1C(=O)C=CC1=O)C[C@@H]3O[C@H]1C[C@H](N)[C@H](O)[C@H](C)O1` [Aldoxorubicin]: the drug sensitivity score in test [1] came to 11.2 ± 0.35; in test [2] it was 20.3 ± 0.71; in test [3], 18.1 ± 0.35.
As to `CCc1cc2c(cc1N1CCC(N3CCOCC3)CC1)C(C)(C)c1[nH]c3cc(C#N)ccc3c1C2=O` [Alectinib], the figures for the drug sensitivity score in test [1], in test [2] and in test [3] were 0, 1.05 ± 0.35 and 0.7 ± 0.99, respectively.
Consider `Cc1nc(NC(=O)N2CCC[C@H]2C(N)=O)sc1-c1ccnc(C(C)(C)C(F)(F)F)c1` [Alpelisib], for which the drug sensitivity score is 0.75 ± 1.1 in test [1], 2.5 ± 0.57 in test [2] and 3 ± 1.8 in test [3].
Turning to `O=C(Nc1cc(Oc2cc(F)c(NC(=O)C3(C(=O)Nc4ccc(F)cc4)CC3)cc2F)ccn1)C1CC1` [Altiratinib], the results for the drug sensitivity score in test [1], in test [2] and in test [3] were 5.45 ± 0.21, 10.8 and 6.8 ± 0.85, respectively.
Consider `CCN(CC)CCNC(=O)c1c(C)[nH]c(/C=C2\C(=O)Nc3ccc(-c4csc(-c5ccccc5)n4)cc32)c1C` [Amcasertib], for which the drug sensitivity score in test [1] was determined as 0; in test [2] it was 5.95 ± 1.6; in test [3], 5.35 ± 7.6.
As for `COc1cc(NS(C)(=O)=O)ccc1Nc1c2ccccc2nc2ccccc12` [Amsacrine], the drug sensitivity score in test [1] turned out to be 21.6 ± 0.85; in test [2], 35.3 ± 2.7; in test [3], 25.3 ± 0.71.
Turning to `S=C(NCc1ccc2c(c1)OCO2)N1CCN(c2ncnc3c2oc2ccccc23)CC1` [Amuvatinib], the drug sensitivity score in test [1] was determined as 14.9 ± 1.1; in test [2] it was 11.3 ± 1.3; in test [3], 8.45 ± 1.9.
Taken in the same sequence, the figures for `CNC(=O)c1ccc(N2C(=S)N(c3cnc(C#N)c(C(F)(F)F)c3)C(=O)C23CCC3)cc1F` [Apalutamide] were 0, 0 and 0.
In the case of `N#CC1(c2ccc(NC(=O)c3cccnc3NCc3ccncc3)cc2)CCCC1` [Apatinib], the drug sensitivity score worked out at 0 in test [1], 0.4 ± 0.57 in test [2] and 0 in test [3].
As for `O=C(Nc1ccc(OC(F)(F)Cl)cc1)c1cnc(N2CC[C@@H](O)C2)c(-c2cc[nH]n2)c1` [Asciminib], the drug sensitivity score in test [1] came out at 18.8 ± 0.71; in test [2], 31.85 ± 0.071; in test [3], 10.7 ± 4.5.
Take `CC(C)c1c(C(=O)Nc2ccccc2)c(-c2ccccc2)c(-c2ccc(F)cc2)n1CC[C@@H](O)C[C@@H](O)CC(=O)O` [Atorvastatin]: the drug sensitivity score in test [1] was 0; in test [2] it was 0.65 ± 0.92; in test [3] it was 0.1 ± 0.14.
On to `CC(=O)OC[C@H]1O[C@@H]([S-])[C@H](OC(C)=O)[C@@H](OC(C)=O)[C@@H]1OC(C)=O.CCP(CC)CC.[Au+]` [Auranofin], for which the values for the drug sensitivity score in test [1], in test [2] and in test [3] were 2.8 ± 0.71, 8.5 ± 0.85 and 6.15 ± 4.5, respectively.
In the case of `Cc1cc(-c2nc(-c3ccc(OC(F)(F)F)cc3)no2)nn1Cc1ccnc(N2CCN(C3CC3)CC2)c1` [BAY 87-2243], the drug sensitivity score was determined as 4.9 ± 0.57 in test [1], 4.6 ± 2.3 in test [2] and 3.25 ± 1.5 in test [3].
Turning to `Nc1nc(Nc2ccc3c(c2)CC[C@@H](N2CCCC2)CC3)nn1-c1cc2c(nn1)-c1ccccc1CCC2` [BGB324], the drug sensitivity score in test [1] is 5.65 ± 0.21; in test [2] it was 7.3 ± 0.57; in test [3] it was 6.35 ± 1.2.
As to `O=C1CCc2c(Oc3ccc4c(c3)[C@@H]3[C@H](O4)[C@H]3c3nc4cc(C(F)(F)F)ccc4[nH]3)ccnc2N1` [BGB-283], the drug sensitivity score was determined as 16 ± 0.14 in test [1], 21.8 ± 0.64 in test [2] and 16.9 in test [3].
Turning to `CC1(C)C(C(=O)Nc2ccc(S(=O)(=O)c3ccc(NC(=O)C4C(C)(C)C4(C)C)cc3)cc2)C1(C)C` [BRD7116], the drug sensitivity score in test [1] was 0; in test [2] it was 3.75 ± 2.6; in test [3], 0.05 ± 0.071.
Take `O=C(Nc1cccc(Nc2ncc(Br)c(NCCc3cnc[nH]3)n2)c1)N1CCCC1` [BX-912]: the values for the drug sensitivity score in test [1], in test [2] and in test [3] were 1.85 ± 0.071, 8.9 ± 0.42 and 7.25 ± 1.1, respectively.
Taken in the same sequence, the figures for `Cc1ccc(NC(=O)c2ccc(CN3CC[C@H](N(C)C)C3)c(C(F)(F)F)c2)cc1Nc1nccc(-c2cncnc2)n1` [Bafetinib] were 16.3, 26.55 ± 0.21 and 19.9 ± 1.5.
Take `CCS(=O)(=O)N1CC(CC#N)(n2cc(-c3ncnc4[nH]ccc34)cn2)C1` [Baricitinib]: the drug sensitivity score in test [1], in test [2] and in test [3] was 0 in each case.
Turning to `N#CC(c1ccnc(OCc2ccc(CN3CCOCC3)cc2)n1)c1nc2ccccc2s1` (centres undefined) [Bentamapimod], the drug sensitivity score was 4.25 ± 0.49 in test [1], 2.55 ± 1.6 in test [2] and 0.75 ± 1.1 in test [3].
Turning to `CC(O)(CS(=O)(=O)c1ccc(F)cc1)C(=O)Nc1ccc(C#N)c(C(F)(F)F)c1` (centres undefined) [Bicalutamide], the drug sensitivity score came to 0 in test [1], 0.25 ± 0.35 in test [2] and 1.15 ± 1.6 in test [3].
The corresponding values for `Cn1cnc2c(F)c(Nc3ccc(Br)cc3F)c(C(=O)NOCCO)cc21` [Binimetinib] are 0, 3.3 ± 0.42 and 0.3 ± 0.42.
